Laboratory results from patent US9108944B2, “Androgen receptor modulators and uses thereof” (ARAGON PHARMACEUTICALS, INC., priority 2010, dated 2015).

Assays:
AR-VP16 [1] = biological target: T1, AR-VP16 (Homo sapiens, UniProt P10275); test: AR-VP16 DNA Binding Assay, agonist mode (HepG2 cells); type: cell-based; details: Emax >20x DMSO control = agonist
T1 sequence (P10275 560-920 limits assumed): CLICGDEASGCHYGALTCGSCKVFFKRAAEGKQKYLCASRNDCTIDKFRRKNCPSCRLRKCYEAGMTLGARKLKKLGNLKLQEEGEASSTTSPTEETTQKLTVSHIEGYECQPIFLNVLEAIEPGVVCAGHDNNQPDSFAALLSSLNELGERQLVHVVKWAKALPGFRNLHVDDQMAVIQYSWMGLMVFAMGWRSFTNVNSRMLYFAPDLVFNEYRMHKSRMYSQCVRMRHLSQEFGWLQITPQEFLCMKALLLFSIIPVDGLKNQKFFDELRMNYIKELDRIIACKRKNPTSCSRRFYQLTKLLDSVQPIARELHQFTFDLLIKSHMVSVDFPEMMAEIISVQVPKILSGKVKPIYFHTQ

AR-VP16 [2] = biological target: T1, AR-VP16; test: AR-VP16 DNA Binding Assay, antagonist mode (HepG2 cells, 0.1 nM R1881); type: cell-based
In short: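 HepG2 cells transiently transfected with AR-VP16 (Lipofectin), incubated overnight, then treated with compound in RPMI with charcoal-stripped serum. Antagonist mode adds R1881 at 0.1 nM final. Cells lysed after 48 h incubation for read-out.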

Structure (SMILES)	ARVP16 DNA Binding Assay (Agonist mode): Agonist? (AR-VP16 [1])	IC50 (AR-VP16 [2])
Cc1ccc(-c2ccc(N3C(=S)N(c4cnc(C#N)c(C)c4)C(=O)C34CCC4)cc2)cn1 [Compound 96, 3-Methyl-5-(5-(4-(6-methylpyridin-3-yl)phenyl)-8-oxo-6-thioxo-5,7-diazaspiro[3.4]octan-7-yl)picolinonitrile]	No (Agonist defined as a compound whose Emax in the ARVP16 DNA Binding Assay (Agonist mode) is >20x DMSO control)	< 1 µM
Cc1ccc(CN2C(=S)N(c3cnc(C#N)c(C(F)(F)F)c3)C(=O)C23CCC3)cc1 [Compound 84, 5-(5-(4-Methylbenzyl)-8-oxo-6-thioxo-5,7-diazaspiro[3.4]octan-7-yl)-3-(trifluoromethyl)picolinonitrile]	Yes (Agonist defined as a compound whose Emax in the ARVP16 DNA Binding Assay (Agonist mode) is >20x DMSO control)	< 1 µM
N#Cc1ncc(N2C(=O)C3(CCC3)N(c3ccc(F)c(OCCc4ccncc4)c3)C2=S)cc1C(F)(F)F [Compound 160, 5-(5-(4-Fluoro-3-(2-(pyridin-4-yl)ethoxy)phenyl)-8-oxo-6-thioxo-5,7-diazaspiro[3.4]octan-7-yl)-3-(trifluoromethyl)picolinonitrile]	No (Agonist defined as a compound whose Emax in the ARVP16 DNA Binding Assay (Agonist mode) is >20x DMSO control)	> 1 µM
Cc1cc(N2C(=O)C3(CCC3)N(c3ccc(C(=O)Nc4ccc(Cl)cc4)c(F)c3)C2=S)cnc1C#N [Compound 296, N-(4-Chlorophenyl)-4-(7-(6-cyano-5-methylpyridin-3-yl)-8-oxo-6-thioxo-5,7-diazaspiro[3.4]octan-5-yl)-2-fluorobenzamide]	No (Agonist defined as a compound whose Emax in the ARVP16 DNA Binding Assay (Agonist mode) is >20x DMSO control)	< 1 µM
CNC(=O)c1ccc(N2C(=S)N(c3cnc(C#N)c(OC)c3)C(=O)C23CCC3)cc1F [Compound 60, 4-(7-(6-Cyano-5-methoxypyridin-3-yl)-8-oxo-6-thioxo-5,7-diazaspiro[3.4]octan-5-yl)-2-fluoro-N-methylbenzamide]	Yes (Agonist defined as a compound whose Emax in the ARVP16 DNA Binding Assay (Agonist mode) is >20x DMSO control)	< 1 µM
N#Cc1ncc(N2C(=O)C3(CCC3)N(c3ccc(F)c(C(=O)NCCc4cccnc4)c3)C2=S)cc1C(F)(F)F [Compound 240, 5-(7-(6-Cyano-5-(trifluoromethyl)pyridin-3-yl)-8-oxo-6-thioxo-5,7-diazaspiro[3.4]octan-5-yl)-2-fluoro-N-(2-(pyridin-3-yl)ethyl)benzamide]	No (Agonist defined as a compound whose Emax in the ARVP16 DNA Binding Assay (Agonist mode) is >20x DMSO control)	> 1 µM
N#Cc1ncc(N2C(=O)C3(CCC3)N(c3ccc(CO)cc3)C2=S)cc1C(F)(F)F [Compound 69, 5-(5-(4-(Hydroxymethyl)phenyl)-8-oxo-6-thioxo-5,7-diazaspiro[3.4]octan-7-yl)-3-(trifluoromethyl)picolinonitrile]	No (Agonist defined as a compound whose Emax in the ARVP16 DNA Binding Assay (Agonist mode) is >20x DMSO control)	< 1 µM
COc1ccc(N2C(=S)N(c3cnc(C#N)c(C)c3)C(=O)C23CCC3)cc1 [Compound 205, 5-(5-(4-Methoxyphenyl)-8-oxo-6-thioxo-5,7-diazaspiro[3.4]octan-7-yl)-3-methylpicolinonitrile]	No (Agonist defined as a compound whose Emax in the ARVP16 DNA Binding Assay (Agonist mode) is >20x DMSO control)	< 1 µM
COC(=O)c1ccc(N2C(=S)N(c3cnc(C#N)c(C)c3)C(=O)C23CCC3)c(F)c1 [Compound 71, Methyl 4-(7-(6-cyano-5-methylpyridin-3-yl)-8-oxo-6-thioxo-5,7-diazaspiro[3.4]octan-5-yl)-3-fluorobenzoate]	No (Agonist defined as a compound whose Emax in the ARVP16 DNA Binding Assay (Agonist mode) is >20x DMSO control)	> 1 µM
COc1cc(F)ccc1N1C(=S)N(c2cnc(C#N)c(C(F)(F)F)c2)C(=O)C12CCC2 [Compound 29, 5-(5-(4-Fluoro-2-methoxyphenyl)-8-oxo-6-thioxo-5,7-diazaspiro[3.4]octan-7-yl)-3-(trifluoromethyl)picolinonitrile]	No (Agonist defined as a compound whose Emax in the ARVP16 DNA Binding Assay (Agonist mode) is >20x DMSO control)	< 1 µM
CCOC(=O)N1CCC(Oc2ccc(N3C(=S)N(c4cnc(C#N)c(C(F)(F)F)c4)C(=O)C34CCC4)cc2)CC1 [Compound 214, ethyl 4-(4-(7-(6-cyano-5-(trifluoromethyl)pyridin-3-yl)-8-oxo-6-thioxo-5,7-diazaspiro[3.4]octan-5-yl)phenoxy)piperidine-1-carboxylate]	Yes (Agonist defined as a compound whose Emax in the ARVP16 DNA Binding Assay (Agonist mode) is >20x DMSO control)	< 1 µM
N#Cc1ncc(N2C(=O)C3(CCC3)N(c3ccc(OCCc4ccccc4)c(F)c3)C2=S)cc1C(F)(F)F [Compound 188, 5-(5-(3-Fluoro-4-phenethoxyphenyl)-8-oxo-6-thioxo-5,7-diazaspiro[3.4]octan-7-yl)-3-(trifluoromethyl)picolinonitrile]	No (Agonist defined as a compound whose Emax in the ARVP16 DNA Binding Assay (Agonist mode) is >20x DMSO control)	< 1 µM
Cn1ncc(Br)c1CCNC(=O)c1ccc(N2C(=S)N(c3cnc(C#N)c(C(F)(F)F)c3)C(=O)C23CCC3)cc1F [Compound 256, N-(2-(4-Bromo-1-methyl-1H-pyrazol-5-yl)ethyl)-4-(7-(6-cyano-5-(trifluoromethyl)pyridin-3-yl)-8-oxo-6-thioxo-5,7-diazaspiro[3.4]octan-5-yl)-2-fluorobenzamide]	No (Agonist defined as a compound whose Emax in the ARVP16 DNA Binding Assay (Agonist mode) is >20x DMSO control)	< 1 µM
N#Cc1ncc(N2C(=O)C3(CCC3)N(c3ccc(CCCO)cc3)C2=S)cc1C(F)(F)F [Compound 86, 5-(5-(4-(3-hydroxypropyl)phenyl)-8-oxo-6-thioxo-5,7-diazaspiro[3.4]octan-7-yl)-3-(trifluoromethyl)picolinonitrile]	No (Agonist defined as a compound whose Emax in the ARVP16 DNA Binding Assay (Agonist mode) is >20x DMSO control)	< 1 µM
